Assay results taken from US6992103B2, “Benzamide derivatives, processes for their preparation, and their pharmaceutical use” (SmithKline Beecham P.L.C., priority 2001, dated 2006).
Where two headings read alike, the source gives them in different places.

Assays:
Assay type in all cases: biochemical
Asp-1 = biological target: T1, Asp-1 (Homo sapiens, UniProt Q9Y5Z0); assay: Asp-1 Inhibitory Assay (FAM-[SEVNLDAEFK]-TAMRA substrate cleavage, fluorescence); settings: Assay (II), pH 4.5, 2 h room temperature
T1 sequence (Q9Y5Z0 63-518): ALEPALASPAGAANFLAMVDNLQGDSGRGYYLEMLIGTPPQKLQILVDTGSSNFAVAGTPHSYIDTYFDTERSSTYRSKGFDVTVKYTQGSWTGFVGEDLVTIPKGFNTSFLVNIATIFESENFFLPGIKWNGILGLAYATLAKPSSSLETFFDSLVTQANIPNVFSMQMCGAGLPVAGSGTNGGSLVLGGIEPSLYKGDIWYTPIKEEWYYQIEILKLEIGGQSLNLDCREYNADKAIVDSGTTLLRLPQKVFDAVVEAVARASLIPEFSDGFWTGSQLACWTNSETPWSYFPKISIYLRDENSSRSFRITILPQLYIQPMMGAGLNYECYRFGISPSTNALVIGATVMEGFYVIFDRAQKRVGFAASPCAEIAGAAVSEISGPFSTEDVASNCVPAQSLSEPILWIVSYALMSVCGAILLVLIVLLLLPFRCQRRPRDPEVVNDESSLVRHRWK
Experimental: (II) Asp-1 Inhibitory Assay
(§1) For each compound being assayed, in a 384 well plate, is added:
(§2) a) 1 μl of a DMSO solution of the test compound (IC50 curve uses ten 1 in 2 serial dilutions from 500 μM).
b) 10 μl of substrate (FAM-[SEVNLDAEFK]-TAMRA) solution in buffer. This is prepared by diluting 2 ml of a 2 mM DMSO solution of the substrate into 400 ml of buffer (100 mM Sodium acetate pH=4.5, 1 l Milli-Q water, 0.06% Triton X-100 (0.5 ml/l), pH adjusted to 4.5 using glacial acetic acid). c) 10 μl enzyme solution. This is prepared by diluting 4 ml of a 6.3 μM enzyme solution into 496 ml of buffer (100 mM Sodium acetate pH=4.5, 40 mM sodium chloride, 900 ml Milli-Q water, 100 ml glycerol, 0.2% CHAPS (2 g/l), pH adjusted to 4.5 using glacial acetic acid).
Blank wells (enzyme solution replaced by buffer) are included as controls on each plate. Wells are incubated for 2 h at room temperature and fluorescence read using a Tecan Ultra Fluorimeter/Spectrophotometer (485 nm excitation, 535 nm emission).

Cathepsin D = Cathepsin D (Homo sapiens, UniProt P07339); assay: Cathepsin D Inhibitory Assay (FAM-SEVNLDAEFK-TAMRA substrate cleavage, fluorescence); settings: Assay (III)
Experimental: (II) Cathepsin D Inhibitory Assay
as §1, §2
(§3) b) 10 μl of substrate (FAM-SEVNLDAEFK-TAMRA) solution in buffer. This is prepared by diluting 2 ml of a 2 mM DMSO solution of the substrate into 400 ml of buffer (100 mM Sodium acetate pH=4.5, 1 l Milli-Q water, 0.06% Triton X-100 (0.5 ml/l), pH adjusted to 4.5 using glacial acetic acid). c) 10 μl enzyme solution. This is prepared by diluting 1.6 ml of a 200 unit/ml (in 10 mM HCl) enzyme solution into 398.4 ml of buffer (prepared as above).
(§4) Blank wells (enzyme solution replaced by buffer) are included as controls on each plate. Wells are incubated for 1 h at room temperature and fluorescence read using a Tecan Ultra Fluorimeter/Spectrophotometer (485 nm excitation, 535 nm emission).

Asp-2 = Asp-2 (Homo sapiens, UniProt P56817); assay: Asp-2 Inhibitory Assay (FAM-[SEVNLDAEFK]-TAMRA substrate cleavage, fluorescence); settings: Assay (I)
Experimental: (I) Asp-2 Inhibitory Assay
as §1, §2
as §3, with “(FAM-[SEVNLDAEFK]-TAMRA)” for “(FAM-SEVNLDAEFK-TAMRA)”, “acid). Aminomethyl fluorescein (FAM) and tetramethyl rhodamine (TAMRA) are fluorescent molecules which co-operate to emit fluorescence at 535 nm upon cleavage of the SEVNLDAEFK peptide.” for “acid).”, “16” for “1.6”, “500 nM” for “200 unit/ml (in 10 mM HCl)”, “384” for “398.4”
as §4

[1] = pH 4.5, 1 h room temperature, read-out: Cat. D IC50
[2] = pH 4.5, 1 h room temperature, read-out: Asp-2 IC50
[3] = range given for a group of Examples, read-out: range of inhibition (CatD)
[4] = range given for a group of Examples, read-out: range of inhibition (Asp-2)

Chain of Cathepsin D (P07339 65-412, species assumed): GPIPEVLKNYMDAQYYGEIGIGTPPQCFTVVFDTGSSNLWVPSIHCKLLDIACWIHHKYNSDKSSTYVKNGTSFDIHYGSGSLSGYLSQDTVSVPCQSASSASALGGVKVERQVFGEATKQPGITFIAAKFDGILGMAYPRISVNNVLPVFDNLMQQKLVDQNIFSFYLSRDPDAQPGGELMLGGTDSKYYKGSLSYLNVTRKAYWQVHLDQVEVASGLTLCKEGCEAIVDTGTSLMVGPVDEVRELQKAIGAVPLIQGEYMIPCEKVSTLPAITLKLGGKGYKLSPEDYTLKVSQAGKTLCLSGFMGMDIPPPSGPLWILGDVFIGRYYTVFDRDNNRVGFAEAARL
Chain of Asp-2 (P56817 46-501): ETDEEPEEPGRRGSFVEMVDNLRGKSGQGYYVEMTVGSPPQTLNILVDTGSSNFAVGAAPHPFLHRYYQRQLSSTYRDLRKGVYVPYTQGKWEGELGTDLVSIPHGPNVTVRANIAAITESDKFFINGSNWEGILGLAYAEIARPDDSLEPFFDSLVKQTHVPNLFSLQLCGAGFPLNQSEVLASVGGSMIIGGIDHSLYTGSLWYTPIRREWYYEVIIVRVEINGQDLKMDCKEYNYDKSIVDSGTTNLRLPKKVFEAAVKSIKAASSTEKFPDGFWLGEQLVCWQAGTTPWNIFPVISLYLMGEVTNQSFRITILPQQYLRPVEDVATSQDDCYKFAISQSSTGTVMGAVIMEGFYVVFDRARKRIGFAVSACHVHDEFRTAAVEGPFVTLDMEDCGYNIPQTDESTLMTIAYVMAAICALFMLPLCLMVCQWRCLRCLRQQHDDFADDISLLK

| Structure (SMILES) | IC50 (Asp-1) | IC50 (Cathepsin D; [1]) | IC50 (Asp-2; [2]) | IC50 (Cathepsin D; [3]) | IC50 (Asp-2; [4]) |
| --- | --- | --- | --- | --- | --- |
| C=CCOc1cc(C(=O)N[C@@H](Cc2ccccc2)[C@@H](O)C[C@@H](C)C(=O)NCCC(C)(C)C)cc(N2CCCC2=O)c1 [Example E3, 3-Allyloxy-N-[(1S,2S,4R)-1-benzyl-4-(3,3-dimethylbutylcarbamoyl)-2-hydroxypentyl]-5-(2-oxopyrrolidin-1-yl)-benzamide] | 420 nM | 2900 nM | 60 nM |  |  |
| C[C@H](C[C@H](O)[C@H](Cc1ccccc1)NC(=O)c1cc(N2CCCC2=O)cc(N2CCCC2=O)c1)C(=O)NC1CC2CCC1C2 (stereo partly drawn) [Example E8, N-[(1S,2S,4R)-1-Benzyl-4-(bicyclo[2.2.1]hept-2-ylcarbamoyl)-2-hydroxypentyl]-3,5-bis-(2-oxopyrrolidin-1-yl)benzamide] |  |  |  | 340 to 3000 nM | 2 to 30 nM |
| CC(C)Oc1cc(C(=O)N[C@@H](Cc2ccccc2)[C@@H](O)C[C@@H](C)C(=O)NC2CC3CCC2C3)cc(N2CCCC2=O)c1 (stereo partly drawn) [Example E14, N-[(1S,2S,4R)-1-Benzyl-4-(bicyclo[2.2.1]hept-2-ylcarbamoyl)-2-hydroxypentyl]-3-isopropoxy-5-(2-oxopyrrolidin-1-yl)benzamide] |  |  |  | 340 to 3000 nM | 2 to 30 nM |
| C[C@H](C[C@H](O)[C@H](Cc1ccccc1)NC(=O)c1cccc(N2CCCC2=O)c1F)C(=O)NC1CC2CCC1C2 (stereo partly drawn) [Example E21, N-[(1S,2S,4R)-1-Benzyl-4-(bicyclo[2.2.1]hept-2-ylcarbamoyl)-2-hydroxypentyl]-2-fluoro-3-(2-oxopyrrolidin-1-yl)-benzamide] |  |  |  | 340 to 3000 nM | 2 to 30 nM |
| C[C@H](C[C@H](O)[C@H](Cc1ccccc1)NC(=O)c1cc(N2CCCC2=O)cc(N2CCCC2=O)c1F)C(=O)NC1CC2CCC1C2 (stereo partly drawn) [Example E22, N-[(1S,2S,4R)-1-Benzyl-4-(bicyclo[2.2.1]hept-2-ylcarbamoyl)-2-hydroxypentyl]-2-fluoro-3,5-bis-(2-oxopyrrolidin-1-yl)benzamide] |  |  |  | 340 to 3000 nM | 2 to 30 nM |
| C[C@H](C[C@H](O)[C@H](Cc1ccccc1)NC(=O)c1cc(N2CCCC2=O)cc(N2CCCC2=O)c1F)C(=O)NC1CCC(C(C)(C)C)CC1 (stereo partly drawn) [Example E32, N-[(1S,2S,4R)-1-Benzyl-4-(4-tert-butylcyclohexylcarbamoyl)-2-hydroxypentyl]-2-fluoro-3,5-bis-(2-oxopyrrolidin-1-yl)benzamide] |  |  |  | 340 to 3000 nM | 2 to 30 nM |

Second part, the compound after the results:

| IC50 (Asp-1) | IC50 (Cathepsin D; [1]) | IC50 (Asp-2; [2]) | IC50 (Cathepsin D; [3]) | IC50 (Asp-2; [4]) | Structure (SMILES) |
| --- | --- | --- | --- | --- | --- |
| 6000 nM | 13000 nM | 600 nM |  |  | C[C@H](C[C@H](O)[C@H](Cc1ccccc1)NC(=O)c1ccc(F)c(N2CCCC2=O)c1)C(=O)NCCC(C)(C)C (stereo in doubt) [Example E1, N-[(1S,2S,4R)-1-Benzyl-4-(3,3-dimethylbutylcarbamoyl)-2-hydroxypentyl]-4-fluoro-3-(2-oxopyrrolidin-1-yl)-benzamide] |
| 150 nM | 1800 nM | 35 nM |  |  | CCCOc1cc(C(=O)N[C@@H](Cc2ccccc2)[C@@H](O)C[C@@H](C)C(=O)NCCC(C)(C)C)cc(N2CCCC2=O)c1 [Example E4, N-[(1S,2S,4R)-1-Benzyl-4-(3,3-dimethylbutylcarbamoyl)-2-hydroxypentyl]-3-(2-oxopyrrolidin-1-yl)-5-propoxybenzamide] |
|  |  |  | 340 to 3000 nM | 2 to 30 nM | CC(=O)Nc1cc(C(=O)N[C@@H](Cc2ccccc2)[C@@H](O)C[C@@H](C)C(=O)NC2CC3CCC2C3)cc(N2CCCC2=O)c1 (stereo partly drawn) [Example E10, 3-Acetylamino-N-[(1S,2S,4R)-1-benzyl-4-(bicyclo[2.2.1]hept-2-ylcarbamoyl)-2-hydroxypentyl]-5-(2-oxopyrrolidin-1-yl)benzamide] |
|  |  |  | 340 to 3000 nM | 2 to 30 nM | CC(C)Oc1cc(C(=O)N[C@@H](Cc2ccccc2)[C@@H](O)C[C@@H](C)C(=O)NC2CCC2)cc(N2CCCC2=O)c1 [Example E26, N-[(1S,2S,4R)-1-Benzyl-4-(cyclobutylcarbamoyl)-2-hydroxypentyl]-3-isopropoxy-5-(2-oxopyrrolidin-1-yl)benzamide] |
